ChEMBL document CHEMBL5647692, “The novel dual PI3K/mTOR inhibitor NVP-BGT226 displays cytotoxic activity in both normoxic and hypoxic hepatocarcinoma cells” (Oncotarget, 2015)
The source made the active and inactive calls. The calls are words filed in the database; no cut-off is given here. Peptide text beside a SMILES is read from it. * marks the point of attachment. Cbz = O=C(OCc1ccccc1)*; CH2F = FC*

Columns and labels:
[1] = tested on: SNU-475; assay: Induction of autophagy in human SNU-475 cells assessed as reduction in cytotoxicity at 10 to 25 uM incubated for 24 hrs by MTT assay; format: functional, cell-based; conditions: dose 10-25 µM
[2] = tested on: Mahlavu; assay: Induction of autophagy in human Mahlavu cells assessed as reduction in cytotoxicity at 10 to 25 uM incubated for 24 hrs by MTT assay; format: functional, cell-based; conditions: dose 10-25 µM
[3] = tested on: Mahlavu; assay: Cytotoxicity against human Mahlavu cells assessed as reduction in cell viability at 10 uM incubated for 24 hrs under normoxia condition by MTT assay; format: functional, cell-based
[4] = tested on: SNU-475; assay: Cytotoxicity against human SNU-475 cells assessed as reduction in cell viability at 10 uM incubated for 24 hrs under hypoxia condition by MTT assay; format: functional, cell-based
[5] = tested on: Mahlavu; assay: Cytotoxicity against human Mahlavu cells assessed as reduction in cell viability at 25 uM incubated for 24 hrs under hypoxia condition by MTT assay; format: functional, cell-based
[6] = tested on: SNU-475; assay: Cytotoxicity against human SNU-475 cells assessed as reduction in cell viability at 25 uM incubated for 24 hrs under hypoxia condition by MTT assay; format: functional, cell-based
[7] = tested on: Mahlavu; assay: Cytotoxicity against human Mahlavu cells assessed as reduction in cell viability at 10 uM incubated for 24 hrs in presence of BGT226 under hypoxia condition by MTT assay; format: functional, cell-based
[8] = tested on: SNU-475; assay: Cytotoxicity against human SNU-475 cells assessed as reduction in cell viability at 10 uM incubated for 24 hrs in presence of BGT226 under hypoxia condition by MTT assay; format: functional, cell-based
[9] = tested on: Mahlavu; assay: Cytotoxicity against human Mahlavu cells assessed as reduction in cell viability at 25 uM incubated for 24 hrs in presence of BGT226 under hypoxia condition by MTT assay; format: functional, cell-based
[10] = tested on: SNU-475; assay: Cytotoxicity against human SNU-475 cells assessed as reduction in cell viability at 25 uM incubated for 24 hrs in presence of BGT226 under hypoxia condition by MTT assay; format: functional, cell-based
[11] = tested on: Hep 3B2; assay: Cytotoxicity against human Hep3B cells assessed as reduction in cell viability at 10 uM incubated for 24 hrs by MTT assay; format: functional, cell-based
[12] = tested on: HepG2; assay: Cytotoxicity against human HepG2 cells assessed as reduction in cell viability at 10 uM incubated for 24 hrs by MTT assay; format: functional, cell-based
[13] = tested on: Mahlavu; assay: Cytotoxicity against human Mahlavu cells assessed as reduction in cell growth at 10 uM incubated for 24 hrs under hypoxia condition by MTT assay; format: functional, cell-based
[14] = tested on: Hep 3B2; assay: Cytotoxicity against human Hep3B cells assessed as reduction in cell growth at 10 uM incubated for 24 hrs under hypoxia condition by MTT assay; format: functional, cell-based
[15] = tested on: Mahlavu; assay: Induction of apoptosis in human Mahlavu cells assessed as viable cells at 75 uM incubated for 24 hrs by Annexin-V/7-AAD staining based muse cell analyzer method (reference value: 90.52 %); format: functional; conditions: read-out: Activity
[16] = tested on: Mahlavu; assay: Induction of apoptosis in human Mahlavu cells assessed as early apoptotic cells at 75 uM incubated for 24 hrs by Annexin-V/7-AAD staining based muse cell analyzer method (reference value: 6.57 %); format: functional
[17] = tested on: Mahlavu; assay: Induction of apoptosis in human Mahlavu cells assessed as late apoptotic cells at 75 uM incubated for 24 hrs by Annexin-V/7-AAD staining based muse cell analyzer method (reference value: 2.24 %); format: functional
[18] = tested on: Mahlavu; assay: Induction of apoptosis in human Mahlavu cells assessed as necrotic cells at 75 uM incubated for 24 hrs by Annexin-V/7-AAD staining based muse cell analyzer method (reference value: 0.67 %); format: functional
[19] = tested on: SNU-449; assay: Induction of apoptosis in human SNU-449 cells assessed as viable cells at 75 uM incubated for 24 hrs by Annexin-V/7-AAD staining based muse cell analyzer method (reference value: 90.07 %); format: functional; conditions: read-out: Activity
[20] = tested on: SNU-449; assay: Induction of apoptosis in human SNU-449 cells assessed as early apoptotic cells at 75 uM incubated for 24 hrs by Annexin-V/7-AAD staining based muse cell analyzer method (reference value: 3.95 %); format: functional
[21] = tested on: SNU-449; assay: Induction of apoptosis in human SNU-449 cells assessed as late apoptotic cells at 75 uM incubated for 24 hrs by Annexin-V/7-AAD staining based muse cell analyzer method (reference value: 5.03 %); format: functional
[22] = tested on: SNU-449; assay: Induction of apoptosis in human SNU-449 cells assessed as necrotic cells at 75 uM incubated for 24 hrs by Annexin-V/7-AAD staining based muse cell analyzer method (reference value: 0.95 %); format: functional

**Q.** For CCN(CC)CCCC(C)Nc1ccnc2cc(Cl)ccc12 (configuration not stated), which Activity [1] is on record?
**A.** Active

**Q.** What about the Activity [2] of the same compound?
**A.** Active

**Q.** And the Activity [3]?
**A.** Active

**Q.** And the Activity [4]?
**A.** Active

**Q.** What about the Activity [5] of the same compound?
**A.** Active

**Q.** What about the Activity [6] of the same compound?
**A.** Active

**Q.** And the Activity [7]?
**A.** Active

**Q.** What about the Activity [8] of the same compound?
**A.** Active

**Q.** What about the Activity [9] of the same compound?
**A.** Active

**Q.** What about the Activity [10] of the same compound?
**A.** Active

**Q.** How did the Activity [11] turn out when Cn1cnc(N)c2ncnc1-2 was run?
**A.** inactive

**Q.** And the Activity [12]?
**A.** inactive

**Q.** What about the Activity [13] of the same compound?
**A.** inactive

**Q.** What about the Activity [14] of the same compound?
**A.** inactive

**Q.** How did the viability at 75 µM [15] turn out when COC(=O)C[C@H](NC(=O)[C@H](C)NC(=O)[C@@H](NC(=O)OCc1ccccc1)C(C)C)C(=O)CF (Cbz-Val-Ala-Asp(OMe)-CH2F) was run?
**A.** 89.7%

**Q.** What about the Activity [16] of the same compound?
**A.** 5%

**Q.** What about the Activity [17] of the same compound?
**A.** 3.78%

**Q.** And the Activity [18]?
**A.** 1.52%

**Q.** And the viability at 75 µM [19]?
**A.** 89.5%

**Q.** What about the Activity [20] of the same compound?
**A.** 4.6%

**Q.** And the Activity [21]?
**A.** 5.35%

**Q.** And the Activity [22]?
**A.** 0.53%
